Experimental data published in patent US20170173106A1, “Polypeptide Fragments of 168A-T2 and Compositions Comprising Them for Use in Treating Cancer” (GENE SIGNAL INTERNATIONAL SA, priority 2014, published 2017).
Like-named read-outs stand apart in the source and are kept apart here. Ends that are not written are not given here.

What was measured:
endostatin = assay: Endostatin production by HUVECs (ELISA); format: cell-based, human; conditions: inhibitor of MMPs GM6001 alone; FIG. 16
Method: HUVECs were transfected with siRNA using transfecting agent GENJET according to the manufacturer's instructions. After 48 hrs of incubation, supernatants were collected, protein expression tested by western blots and endostatin quantified.
Endostatin levels were quantified by ELISAs on lysates of HUVECs incubated at rising concentrations of P3 or PCT for 48 hrs.
In order to evaluate the role of metalloproteinases (MMPs) in endostatin production, a polyvalent inhibitor of MMPs, GM6001 was used. The concentration of endostatin in supernatants is at 6.2 ng/mg of protein of the lysates/48 hrs. […] GM6001 inhibits endostatin production induced by P3. MMPs might then be implicated in endostatin production induced by P3.
HUVECs were incubated for 48 hrs in an EGM2-MV media with an anti-CD151 antibody (11G5a) or an irrelevant antibody (negative control unable to recognize any protein). Then endostatin levels were measured by ELISA in supernatants.
HUVECs cells were transfected with specific siRNA of CD151 and CD9. Protein expression was analyzed in western blots. In parallel, endostatin levels were measured by ELISA in supernatants. […] Levels of endostatin in supernatant of HUVECs cells transfected with siRNA were measured. […] On the contrary, levels of endostatin increased at 9.4 ng/mg of protein lysates/48 hrs in HUVECs depleted in CD151 (FIG. 18B). CD151 is thus involved in the production of endostatin.

UMUC-3 cells = assay: Tumor growth test in vivo, UMUC-3 xenograft (no CD9P-1 expression); design: species or system mice; conditions: cisplatin 2.5 mg/kg i.p.; 13 days
Method: Tumor sizes were measured and tumor volume was calculated. Mice were weighted to detect symptoms of pain.
The effect of P3 was then tested on the tumor growth in an in vivo model of xenograft of UMUC-3.

Calu-6 cells = assay: Tumor volume in vivo, Calu-6 xenograft; design: species or system mice; conditions: CDDP alone 5 mg/kg i.p. every other day for 16 days
Method: All experiments were reviewed by Genopole's institutional animal care and use committee, and performed in accordance with institutional guidelines for animal care. Female BALB/c nu/nu mice (n=24) were used at 5-6 weeks of age. The animals were housed in laminar air-flow cabinets under pathogen-free conditions with a 14 hrs light/10 hrs dark schedule, and fed autoclaved standard chow and water ad libitum. Calu-6 cells (5×10^6 cells in 200 μl of serum-free RPMI) were subcutaneously injected into the right flank of mice. After engraftment (10 days), tumor volume (TV) was measured (Balsari et al, Eur J Cancer. 2004 May; 40(8):1275-81) and animals were randomized and separated into four groups of six animals each, to be treated by i.p. injection (200 μl per injection) every other day for 16 days (eight injections). Control mice (group 1) received the vehicle (0.9% saline). […] Pegylated peptide 4 (P4-PEG) was dissolved in vehicle at 1 mg/ml and injected at a dose of 10 mg/kg (group 3). In group 4, mice received both CDDP and P4-PEG. Tumor volume and body weight were measured every other day over the treatment period (16 days).

NCI-H460 cells = conditions: 13 days; for average tumoral volume: Example 6, n=5
Method: (§3) Swiss nu/nu female mice aged 5-6 weeks were anesthetized with xylazine (12 mg/kg) and ketamine (80 mg/kg). Tumor cells (NCI-H460 or UMUC-3) were implanted sub-cutanously in the mice flanks. […] Tumor sizes were measured and tumor volume was calculated. Mice were weighted to detect symptoms of pain.
Evaluating the effect of the peptides on tumor growth in vivo was performed. Cancer cells NCI-H460 were injected by sub-cutaneous administration in the Swiss-nu/nu mice flanks (n=20). 10 days following inoculation of tumor cells, mice were randomized in 2 groups of 5 mice. Mice of different groups were treated as follow: mice of group 1 were treated with solvent (200 μL/injection/48 hrs); mice of group 2 were treated with P3 (200 μL of 1 mg/mL of P3 in the solvent/injection/48 hrs). All the treatments were performed by intraperitoneal injection for 13 successive days.
The inoculation of NCI-H460 cells (tumoral volume of 100 to 150 mm^3), mice (n=35) were randomized in 7 groups comprising 5 mice each. […] All the treatments were performed by intraperitoneal injection for 13 successive days.

HUVECs [1] = assay: Cellular proliferation test (MTT) on HUVECs; format: cell-based, human; conditions: 48 h
Method: Evaluation of cellular proliferation was performed using 4,5-diMethylThiazol-2-yl)-2,5 diphenylTetrazolium bromide (MTT) test. After 18 hrs of culture, the media was changed by EBM2 supplemented with gentamycine and 5% SVF. Different concentrations of peptides were added under a volume of 10 μL/well. Cells were incubated for 48 hrs at 37° C. MTT was added (50 μL/well) to the cells for 3 hrs.
Cells were grown for 48 h in EGM2-MV and proliferation was quantified by MTT assay.

[2] = mouse, in vivo
Method: as §3
In parallel, to investigate the toxic effect of peptides tested on mice, the mice weights were measured along the treatment.

CD151 [3] = target: T1, CD151 (Homo sapiens, UniProt P48509); assay: CD151 in lysates of NCI-H460 xenografts (Western blot); format: in vivo, mice; conditions: 10 mg/kg every other day for 13 days
T1 construct: from tissue; host or cells: homogenates of Matrigel implants with NCI-H460 cells, and NCI-H460 xenografts, from Swiss nu/nu mice
T1 sequence (P48509 1-253): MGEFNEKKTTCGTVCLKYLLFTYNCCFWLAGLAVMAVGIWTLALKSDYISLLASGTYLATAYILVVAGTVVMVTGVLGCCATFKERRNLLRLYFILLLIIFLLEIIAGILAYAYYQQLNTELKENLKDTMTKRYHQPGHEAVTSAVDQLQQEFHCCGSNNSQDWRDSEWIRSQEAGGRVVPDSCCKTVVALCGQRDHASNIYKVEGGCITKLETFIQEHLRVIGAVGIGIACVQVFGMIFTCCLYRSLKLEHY
Method: (§1) In lysates from xenografts NCI-H460 cells from mice treated for 13 days every other day by P3 or P4 (10 mg/kg), a decrease of CD151 level is observed respectively of 73% and 50% compared to mice treated with the solvent (FIGS. 12A and B). No change in CD9P-1 was observed (FIG. 12A).

CD9P-1 [4] = target: T2, CD9P-1 (Homo sapiens, UniProt Q9P2B2); assay: CD9P-1 in lysates of NCI-H460 xenografts (Western blot); format: in vivo, mice; conditions: 10 mg/kg every other day for 13 days
T2 construct: from tissue; host or cells: homogenates of Matrigel implants with NCI-H460 cells, and NCI-H460 xenografts, from Swiss nu/nu mice
T2 sequence (Q9P2B2 26-879): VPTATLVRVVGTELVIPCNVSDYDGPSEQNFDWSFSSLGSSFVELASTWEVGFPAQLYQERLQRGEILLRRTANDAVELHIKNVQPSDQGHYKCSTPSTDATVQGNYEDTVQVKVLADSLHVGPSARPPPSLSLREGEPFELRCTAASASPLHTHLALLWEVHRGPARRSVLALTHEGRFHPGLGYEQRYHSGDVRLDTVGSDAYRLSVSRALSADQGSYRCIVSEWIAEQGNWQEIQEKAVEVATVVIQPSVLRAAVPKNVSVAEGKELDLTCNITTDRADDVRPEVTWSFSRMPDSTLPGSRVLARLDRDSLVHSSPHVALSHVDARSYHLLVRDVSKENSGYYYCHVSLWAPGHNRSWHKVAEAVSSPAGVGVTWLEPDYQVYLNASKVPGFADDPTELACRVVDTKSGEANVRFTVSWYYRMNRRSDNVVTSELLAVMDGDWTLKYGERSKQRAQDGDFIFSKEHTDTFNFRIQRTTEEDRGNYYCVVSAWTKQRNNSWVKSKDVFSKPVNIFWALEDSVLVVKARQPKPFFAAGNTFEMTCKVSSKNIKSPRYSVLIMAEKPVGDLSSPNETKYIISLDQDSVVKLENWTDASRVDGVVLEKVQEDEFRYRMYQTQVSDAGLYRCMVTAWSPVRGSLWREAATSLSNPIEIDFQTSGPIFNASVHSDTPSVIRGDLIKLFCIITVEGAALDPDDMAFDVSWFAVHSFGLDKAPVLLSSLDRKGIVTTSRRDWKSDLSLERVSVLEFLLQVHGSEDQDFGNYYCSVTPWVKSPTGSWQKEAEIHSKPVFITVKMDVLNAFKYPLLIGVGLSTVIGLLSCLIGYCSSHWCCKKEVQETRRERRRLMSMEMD
Method: as §1

[5] = test system: Matrigel® implants enriched in NCI-H460 cells; assay: Angiogenesis test in vivo (Matrigel implants, hemoglobin); design: species or system mice; conditions: 10 mg/kg intraperitoneal daily for 12 days; for color of implants: implants collected day 13
Method: Implants of Matrigel® represent an in vivo model of angiogenesis. NCI-H460 cells are used to provide growth factors necessary for blood vessels formation within the Matrigel® matrix. The mixture was then injected sub-cutanously in the Swiis nu/nu mice. Daily treatments with the peptides (1 mg/mL) were performed by injections intraperitoneally. Implants were collected after 12 days.
The dosage of hemoglobin in implants was used as an indicator of the vessels of the implant. The implants were weighted and crushed.
An in vivo model of angiogenesis as described in Passaniti et al. (1992 Experimental gerontology 27, 559-566) was utilized to evaluate the effect of P3 and P4. Briefly, cancer cells were incorporated into Matrigel®, cancer cells provide growth and angiogenic factors necessary for blood vessel formation. The mixture was injected immediately under a sub-cutaneous form of the mice flanks. The day following the inoculation, 20 mice (Swiss nu-nu) were randomized in 4 groups containing 5 mice each and the treatments started as follows: mice of group 1 were treated by 200 μL/injection/day of solvent alone for 12 successive days; mice of group 2 were treated by 200 μL/injection of a P1 solution (1 mg/mL) in a solvent/injection/day for 12 successive days; mice of group 3 were treated by 200 μL of a P3 solution (1 mg/mL) in a solvent/injection/day for 12 successive days; mice of group 4 were treated by 200 μL of a P4 solution (1 mg/mL) in a solvent/injection/day for 12 successive days.

HUVECs [6] = assay: Capillaries formation by HUVECs on Matrigel; format: cell-based, human; conditions: 6.5 μM, 13 μM and 33 μM, 18 h
Method: Evaluating the formation of capillaries on Matrigel® was performed by angiogenesis test in vitro described in Grant et al (1989 Cell 58, 933-943). Matrigel® was dropped down the wells of the 96 well plates and maintained for 30 min at 37° C. for the Matrigel® solidification. HUVECs cells were then seeded and 50 μL, of peptide added.
Plates were then incubated for 18 hrs at 37° C. cells were then washed with calcein solution (50 μL/well at 8 μM) and incubated for 20 min. HUVECs alive metabolize calcein in a green fluorescent component.
Peptides were added to the culture medium (EGM2-MV) at concentrations 6.5 μM, 13 μM and 33 μM after inoculation of cells. Plates were incubated at 37° C. for 18 h. Fluorescence labeling was achieved by addition of calcein. Pictures were shot with a fluorescence microscope equipped with a camera (zoom ×40).

CD9P-1 [7] = assay: CD9P-1 in homogenates of Matrigel implants enriched with NCI-H460 (Western blot); format: in vivo, mice; conditions: 10 mg/kg for 12 days
Method: (§2) Analysis of the expression of CD151 and CD9P-1 were performed on western blots on homogenates of implants of Matrigel® enriched with NCI-H460. CD151 profile is characterized by 2 bands on western blots; one at 28 kDa corresponds to CD151 and another one at 26 kDa corresponding to a degraded product of CD151.

CD151 [8] = assay: CD151 in homogenates of Matrigel implants enriched with NCI-H460 (Western blot); format: in vivo, mice; conditions: 10 mg/kg for 12 days
Method: as §2

endothelial cells = conditions: results disclosed in WO 2008/138894; cited from earlier work

## CNC(=O)[C@H](Cc1c[nH]c2ccccc12)NC(=O)[C@@H](CC(=O)NO)CC(C)C [GM6001]
endostatin
  concentration of endostatin in supernatants: 4.4 ng/mg of protein of the lysates/48 hrs
  decrease of endostatin compared to the control: about 30%

## N.N.[Cl][Pt][Cl] [cisplatin, Cis-diammine platinum II dichloride]
UMUC-3 cells
  tumors under treatment: reduced
Calu-6 cells
  tumor volume: significant decrease in tumor volume
NCI-H460 cells; cisplatin 2.5 mg/kg i.p.
  average tumoral volume: 1017±119.8 mm^3
NCI-H460 cells; cisplatin alone 5 mg/kg i.p.
  average tumoral volume: 626±118.5 mm^3

## GNYYCSVTPWVKS [P3]
NCI-H460 cells; Example 5, P3 200 μL of 1 mg/mL /injection/48 hrs i.p.
  inhibition of the tumor growth in vivo: 64.79±4.37%
HUVECs [1]; 66 μM, n=3
  inhibition of HUVECs proliferation: 50%±1.2%
[2]
  Weight difference between day 1 and day 13: 10.2 ± 9%
  Weighted average of mice after 13 days of the treatment: 24.6 ± 0.4
[2]; 10 mg/kg
  Weight difference between day 1 and day 13: 6 ± 2%
  Weighted average of mice after 13 days of the treatment: 26.2 ± 2.9
CD151 [3]
  decrease of CD151 level compared to mice treated with the solvent: 73%

## IHSKPVFITVKMDVLNA [P4]
CD9P-1 [4]
  change in CD9P-1: No change
[5]
  inhibition of hemoglobin amount in implants compared to group 1 (solvent): 29.2±8.4%
  color of implants: yellow color with some red points
HUVECs [6]
  capillary tubes formation (capillaries length and junctions number): significant decrease of both capillaries length and junctions number
CD9P-1 [7]
  CD9P-1 level: does not change
CD151 [8]
  decrease of the band corresponding to CD151 (28 kDa, normalized to GAPDH, vs solvent): 51%

## VSWFAVHSFGLDKAPVLLSS (Peptide 1) [P1]
[5]
  color of implants: red color
HUVECs [1]
  effect on HUVECs proliferation: No effect

B1: 168A-T2: fragment of the extracellular domain of protein 168A (CD9P-1) (protein)
chain: MAFDVSWFAVHSFGLDKAPVLLSSLDRKGIVTTSRRDWKSDLSLERVSVLEFLLQVHGSEDQDFGNYYCSVTPWVKSPTGSWQKEAEIHSKPVFITVKMDVLNAFKYP
modifications: peptide 168A-T2
Endothelial cells
  potency relative to the anti-VEGF mAb and/or VEGF receptor (KDR)-based identified peptides: at least 600 fold
